Assay results taken from patent publication US20250276999A1, “PEPTIDES FOR PROMOTING HAIR FOLLICLE NEOGENESIS, AND PREVENTION/MITIGATION OF UNTOWARD EFFECTS OF RADIATION TREATMENT” (Trustees of Tufts College, priority 2022, published 2025).

System: human hair follicle formation in grafted DECs
Test: Dermal-epidermal composites (DECs) grafted onto nude mice
Type: in vivo, NIH(S)-nu/nu female mice
Method: We next asked if TNS peptides could increase human hair follicle formation in grafted dermal-epidermal composite cultures. Human dermal papilla cells isolated from temporal scalp dermis and propagated in vitro. Normal foreskin keratinocytes (NFK) were isolated from neonatal foreskins (pooled from 5-7 donors) and were cultured in serum-free medium supplemented with EGF and bovine pituitary extract. Dermal epidermal composites (DECs) were prepared with human dermal papilla cells and NFK and were grafted onto nude mice. Imaging was done at 4 weeks, 6 weeks, 8 weeks, 10 weeks and 12 weeks and staining for hHLA was performed to evaluate hair follicle anatomy (FIG. 3). TSN peptides increased hair follicle generation (FIG. 3) as well as increased epidermal proliferation in vivo (FIG. 4).
Dermal-epidermal composites and grafting: Human dermal papilla cells isolated from temporal scalp dermis (Promocell, Heidelberg, Germany) from a donor (HDP47) were propagated in vitro according to manufacturer's recommendations. Normal foreskin keratinocytes (NFK) were isolated from neonatal foreskins (pooled from 5-7 donors) and were cultured in serum-free medium (Keratinocyte-SFM, Invitrogen), supplemented with EGF and bovine pituitary extract according to manufacturer's recommendation. Dermal epidermal composites (DECs) were prepared with human dermal papilla cells and NFK and were grafted onto nude mice. […]

Sequence: HSPDIQLQKGLTFEPIQIK [TSN6, 19 amino acid peptide derived from multimerin-1, Coiled coil domain]
- epidermal proliferation in vivo (Ki-67+ cells in epidermis of grafts) (1 μM peptide vs scrambled, P=0.08 (FIG. 4)): stimulates epidermal proliferation
- human hair follicle formation in grafted DECs (12 weeks after grafting, human HLA staining, vs TSN6-scrambled (FIG. 3)): increases human hair follicle formation
